Measured values from patent US12522602B2, “Derivatives having 2,3-dihydro-1H-indene or 2,3-dihydrobenzofuran moiety or pharmaceutically acceptable salt thereof and pharmaceutical compositions comprising the same” (YUHAN CORPORATION, priority 2019, dated 2026).

system: GM1 production in Jurkat cells; test: cells; format: cell-based; conditions: Homo sapiens, Jurkat, 72 h

Row | Compound | IC50
1 | CC1(C)Cc2cc(-c3ccccc3Cl)ccc2C1NC(=O)O[C@@H]1CN2CCC1CC2 (stereo partly drawn) [Example 82, (S)-quinuclidin-3-yl (5-(2-chlorophenyl)-2,2-dimethyl-2,3-dihydro-1H-inden-1-yl)carbamate] | 3.2 nM
2 | O=C(NC1CCc2ccc(-c3ccc(F)c(F)c3F)cc21)O[C@@H]1CN2CCC1CC2 (stereo partly drawn) [Example 45, (S)-quinuclidin-3-yl (6-(2,3,4-trifluorophenyl)-2,3-dihydro-1H-inden-1-yl)carbamate] | 57.3 nM
3 | O=C(NC1CCc2ccc(-c3cccc(C(F)(F)F)c3)cc21)O[C@@H]1CN2CCC1CC2 (stereo partly drawn) [Example 31, (S)-quinuclidin-3-yl (6-(3-(trifluoromethyl)phenyl)-2,3-dihydro-1H-inden-1-yl)carbamate] | 65.5 nM
4 | CC1(C)Cc2cc(-c3ccc(F)c(F)c3F)ccc2C1NC(=O)O[C@@H]1CN2CCC1CC2 (stereo partly drawn) [Example 95, (S)-quinuclidin-3-yl (2,2-dimethyl-5-(2,3,4-trifluorophenyl)-2,3-dihydro-1H-inden-1-yl)carbamate] | 49.7 nM
5 | CC1(C)CC(NC(=O)O[C@@H]2CN3CCC2CC3)c2ccc(-c3ccccc3Cl)cc21 (stereo partly drawn) [Example 400, (S)-quinuclidin-3-yl (5-(2-chlorophenyl)-3,3-dimethyl-2,3-dihydro-1H-inden-1-yl)carbamate] | 108 nM
6 | CCOc1ccc(-c2cc3c(cc2F)C(NC(=O)O[C@@H]2CN4CCC2CC4)C(C)(C)C3)cc1F (stereo partly drawn) [Example 387, (S)-quinuclidin-3-yl (5-(4-ethoxy-3-fluorophenyl)-6-fluoro-2,2-dimethyl-2,3-dihydro-1H-inden-1-yl)carbamate] | 48.2 nM
7 | CC1(C)Cc2cc(-c3cccc(F)c3Cl)ccc2C1NC(=O)O[C@@H]1CN2CCC1CC2 (stereo partly drawn) [Example 237, (S)-quinuclidin-3-yl (5-(2-chloro-3-fluorophenyl)-2,2-dimethyl-2,3-dihydro-1H-inden-1-yl)carbamate] | 29.2 nM
8 | CCC1(CC)Cc2cc(-c3ccc(OCC4CC4)nc3)ccc2C1NC(=O)O[C@@H]1CN2CCC1CC2 (stereo partly drawn) [Example 308, (S)-quinuclidin-3-yl (5-(6-(cyclopropylmethoxy)pyridin-3-yl)-2,2-diethyl-2,3-dihydro-1H-inden-1-yl)carbamate] | 5.5 nM
9 | O=C(NC1CCc2cc(-c3ccc(F)c(F)c3F)ccc21)O[C@@H]1CN2CCC1CC2 (stereo partly drawn) [Example 20, (S)-quinuclidin-3-yl (5-(2,3,4-trifluorophenyl)-2,3-dihydro-1H-inden-1-yl)carbamate] | 126 nM
10 | CSc1cccc(-c2ccc3c(c2)CC(C)(C)C3NC(=O)O[C@@H]2CN3CCC2CC3)c1 (stereo partly drawn) [Example 107, (S)-quinuclidin-3-yl (2,2-dimethyl-5-(3-(methylthio)phenyl)-2,3-dihydro-1H-inden-1-yl)carbamate] | 6.3 nM
11 | CC1(C)Oc2cc(-c3cccc(C(F)(F)F)c3)ccc2C1NC(=O)O[C@@H]1CN2CCC1CC2 (stereo partly drawn) [Example 409, (S)-quinuclidin-3-yl (2,2-dimethyl-6-(3-(trifluoromethyl)phenyl)-2,3-dihydrobenzofuran-3-yl)carbamate] | 14.9 nM
12 | CC1(C)Cc2cc(-c3cc(OC(F)(F)F)ccc3Cl)ccc2C1NC(=O)O[C@@H]1CN2CCC1CC2 (stereo partly drawn) [Example 178, (S)-quinuclidin-3-yl (5-(2-chloro-5-(trifluoromethoxy)phenyl)-2,2-dimethyl-2,3-dihydro-1H-inden-1-yl)carbamate] | 26.9 nM
13 | CCCCc1ccc(-c2ccc3c(c2)CC(C)(C)C3NC(=O)O[C@@H]2CN3CCC2CC3)cc1 (stereo partly drawn) [Example 164, (S)-quinuclidin-3-yl (5-(4-butylphenyl)-2,2-dimethyl-2,3-dihydro-1H-inden-1-yl)carbamate] | 6.5 nM
14 | CC1(C)Cc2cc(-c3cccc(-c4ccccc4)c3)ccc2C1NC(=O)O[C@@H]1CN2CCC1CC2 (stereo partly drawn) [Example 190, (S)-quinuclidin-3-yl (5-([1,1′-biphenyl]-3-yl)-2,2-dimethyl-2,3-dihydro-1H-inden-1-yl)carbamate] | 13.3 nM
15 | COCCOc1cccc(-c2ccc3c(c2)CC2(CC2)C3NC(=O)O[C@@H]2CN3CCC2CC3)c1 (stereo partly drawn) [Example 396, (S)-quinuclidin-3-yl (5′-(3-(2-methoxyethoxy)phenyl)-1′,3′-dihydrospiro[cyclopropane-1,2′-inden]-1′-yl)carbamate] | 39.6 nM
16 | COc1ccc(Cl)cc1-c1cc2c(cc1OC)C(NC(=O)O[C@@H]1CN3CCC1CC3)C(C)(C)C2 (stereo partly drawn) [Example 327, (S)-quinuclidin-3-yl (5-(5-chloro-2-methoxyphenyl)-6-methoxy-2,2-dimethyl-2,3-dihydro-1H-inden-1-yl)carbamate] | 16.8 nM
17 | Cc1cc(-c2ccc3c(c2)CC(C)(C)C3NC(=O)O[C@@H]2CN3CCC2CC3)cc(C)c1OC(C)C (stereo partly drawn) [Example 194, (S)-quinuclidin-3-yl (5-(4-isopropoxy-3,5-dimethylphenyl)-2,2-dimethyl-2,3-dihydro-1H-inden-1-yl)carbamate] | 47.6 nM
18 | Cc1cc(F)cc(-c2ccc3c(c2)CC(C)(C)C3NC(=O)O[C@@H]2CN3CCC2CC3)c1 (stereo partly drawn) [Example 219, (S)-quinuclidin-3-yl (5-(3-fluoro-5-methylphenyl)-2,2-dimethyl-2,3-dihydro-1H-inden-1-yl)carbamate] | 30.4 nM

Row | Compound | IC50
19 | COc1ccc(-c2ccc3c(c2)CC(C)(C)C3NC(=O)O[C@@H]2CN3CCC2CC3)cc1 (stereo partly drawn) [Example 159, (S)-quinuclidin-3-yl (5-(4-methoxyphenyl)-2,2-dimethyl-2,3-dihydro-1H-inden-1-yl)carbamate] | 12.7 nM
20 | O=C(NC1CCc2cc(-c3ccc(Cl)c(Cl)c3)ccc21)O[C@@H]1CN2CCC1CC2 (stereo partly drawn) [Example 23, (S)-quinuclidin-3-yl (5-(3,4-dichlorophenyl)-2,3-dihydro-1H-inden-1-yl)carbamate] | 63.7 nM
21 | COc1ccc(OC)c(-c2ccc3c(c2)CC(C)(C)C3NC(=O)O[C@@H]2CN3CCC2CC3)c1 (stereo partly drawn) [Example 167, (S)-quinuclidin-3-yl (5-(2,5-dimethoxyphenyl)-2,2-dimethyl-2,3-dihydro-1H-inden-1-yl)carbamate] | 3.8 nM
22 | CC(C)Oc1ccc(-c2ccc3c(c2)CC(C)(C)C3NC(=O)O[C@@H]2CN3CCC2CC3)cc1Cl (stereo partly drawn) [Example 127, (S)-quinuclidin-3-yl (5-(3-chloro-4-isopropoxyphenyl)-2,2-dimethyl-2,3-dihydro-1H-inden-1-yl)carbamate] | 18.2 nM
23 | CC1(C)Cc2cc(-c3csc4ccccc34)ccc2C1NC(=O)O[C@@H]1CN2CCC1CC2 (stereo partly drawn) [Example 238, (S)-quinuclidin-3-yl (5-(benzo[b]thiophen-3-yl)-2,2-dimethyl-2,3-dihydro-1H-inden-1-yl)carbamate] | 13.2 nM
24 | CC(C)Oc1ccccc1-c1ccc2c(c1)CC(C)(C)C2NC(=O)O[C@@H]1CN2CCC1CC2 (stereo partly drawn) [Example 145, (S)-quinuclidin-3-yl (5-(2-isopropoxyphenyl)-2,2-dimethyl-2,3-dihydro-1H-inden-1-yl)carbamate] | 23 nM
25 | CC(C)Oc1ccc(-c2ccc3c(c2)CC(C)(C)C3NC(=O)O[C@@H]2CN3CCC2CC3)cn1 (stereo partly drawn) [Example 196, (S)-quinuclidin-3-yl (5-(6-isopropoxypyridin-3-yl)-2,2-dimethyl-2,3-dihydro-1H-inden-1-yl)carbamate] | 23.2 nM
26 | CCOc1c(C)cc(-c2cc3c(cc2OC)C(NC(=O)O[C@@H]2CN4CCC2CC4)C(C)(C)C3)cc1C (stereo partly drawn) [Example 330, (S)-quinuclidin-3-yl (5-(4-ethoxy-3,5-dimethylphenyl)-6-methoxy-2,2-dimethyl-2,3-dihydro-1H-inden-1-yl)carbamate] | 52.7 nM
27 | COc1cc(-c2ccc3c(c2)CC(C)(C)C3NC(=O)O[C@@H]2CN3CCC2CC3)cc(C(F)(F)F)c1 (stereo partly drawn) [Example 224, (S)-quinuclidin-3-yl (5-(3-methoxy-5-(trifluoromethyl)phenyl)-2,2-dimethyl-2,3-dihydro-1H-inden-1-yl)carbamate] | 18.8 nM
28 | CC1(C)Cc2cc(-c3ccc4c(c3)CCCO4)ccc2C1NC(=O)O[C@@H]1CN2CCC1CC2 (stereo partly drawn) [Example 130, (S)-quinuclidin-3-yl (5-(chroman-6-yl)-2,2-dimethyl-2,3-dihydro-1H-inden-1-yl)carbamate] | 10 nM
29 | CC1(C)Cc2ccc(-c3cccc(Cl)c3)cc2C1NC(=O)O[C@@H]1CN2CCC1CC2 (stereo partly drawn) [Example 54, (S)-quinuclidin-3-yl (6-(3-chlorophenyl)-2,2-dimethyl-2,3-dihydro-1H-inden-1-yl)carbamate] | 161 nM
30 | COc1cc(-c2ccc3c(c2)CC(C)(C)C3NC(=O)O[C@@H]2CN3CCC2CC3)ccc1Cl (stereo partly drawn) [Example 125, (S)-quinuclidin-3-yl (5-(4-chloro-3-methoxyphenyl)-2,2-dimethyl-2,3-dihydro-1H-inden-1-yl)carbamate] | 9.5 nM
31 | O=C(NC1c2ccc(-c3ccc(C(F)(F)F)cc3)cc2CC12CC2)O[C@@H]1CN2CCC1CC2 (stereo partly drawn) [Example 391, (S)-quinuclidin-3-yl (5′-(4-(trifluoromethyl)phenyl)-1′,3′-dihydrospiro[cyclopropane-1,2′-inden]-1′-yl)carbamate] | 55.3 nM
32 | Cc1cc(-c2ccc3c(c2)CC(C)(C)C3NC(=O)O[C@@H]2CN3CCC2CC3)cc(C(C)(C)C)c1 (stereo partly drawn) [Example 240, (S)-quinuclidin-3-yl (5-(3-(tert-butyl)-5-methylphenyl)-2,2-dimethyl-2,3-dihydro-1H-inden-1-yl)carbamate] | 51.3 nM
33 | Cc1ccc(-c2ccc3c(c2)CC(C)(C)C3NC(=O)O[C@@H]2CN3CCC2CC3)cc1Cl (stereo partly drawn) [Example 259, (S)-quinuclidin-3-yl (5-(3-chloro-4-methylphenyl)-2,2-dimethyl-2,3-dihydro-1H-inden-1-yl)carbamate] | 10.2 nM
34 | CC(C)(C)c1cccc(-c2ccc3c(c2)CC(C)(C)C3NC(=O)O[C@@H]2CN3CCC2CC3)c1 (stereo partly drawn) [Example 110, (S)-quinuclidin-3-yl (5-(3-(tert-butyl)phenyl)-2,2-dimethyl-2,3-dihydro-1H-inden-1-yl)carbamate] | 15.1 nM
35 | O=C(NC1COc2cc(-c3cccc(C(F)(F)F)c3)ccc21)O[C@@H]1CN2CCC1CC2 (stereo partly drawn) [Example 404, (S)-quinuclidin-3-yl (6-(3-(trifluoromethyl)phenyl)-2,3-dihydrobenzofuran-3-yl)carbamate] | 25.9 nM
36 | CCC1(CC)Cc2cc(-c3ccc(OC)c(OC)c3)ccc2C1NC(=O)O[C@@H]1CN2CCC1CC2 (stereo partly drawn) [Example 298, (S)-quinuclidin-3-yl (5-(3,4-dimethoxyphenyl)-2,2-diethyl-2,3-dihydro-1H-inden-1-yl)carbamate] | 63.2 nM
